Measured values from ChEMBL document CHEMBL4152191, “New potent and selective A1 adenosine receptor antagonists as potential tools for the treatment of gastrointestinal diseases” (Eur J Med Chem, 2018).
The source made the active and inactive calls. The calls are words filed in the database; no cut-off is given here.

What was measured:
Homo sapiens [1] = species: Homo sapiens; experiment: Selectivity index, ratio of Ki for recombinant human adenosine A2B receptor to Ki for recombinant human adenosine A1 receptor
Adenosine receptor A1 [2] = biological target: T1, Adenosine receptor A1 (Homo sapiens, UniProt P30542); experiment: Displacement of [3H]CCPA from recombinant human adenosine A1 receptor transfected in CHO cell membranes after 3 hrs by microbeta scintillation counting analysis
T1 sequence (P30542 whole entry): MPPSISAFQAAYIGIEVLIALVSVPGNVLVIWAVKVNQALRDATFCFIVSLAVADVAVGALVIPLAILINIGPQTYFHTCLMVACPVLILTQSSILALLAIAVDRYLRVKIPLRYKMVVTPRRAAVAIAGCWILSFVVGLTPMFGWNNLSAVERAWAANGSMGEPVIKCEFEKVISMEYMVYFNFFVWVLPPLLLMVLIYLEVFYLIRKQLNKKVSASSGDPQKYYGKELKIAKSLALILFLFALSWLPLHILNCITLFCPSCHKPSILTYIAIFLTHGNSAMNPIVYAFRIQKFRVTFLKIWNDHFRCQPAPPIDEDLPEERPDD

Adenosine receptor A2a = Adenosine receptor A2a (Homo sapiens, UniProt P29274); experiment: Displacement of [3H]NECA from recombinant human adenosine A2A receptor transfected in CHO cell membranes after 3 hrs by microbeta scintillation counting analysis
Adenosine receptor A2a, sequence (P29274 whole entry): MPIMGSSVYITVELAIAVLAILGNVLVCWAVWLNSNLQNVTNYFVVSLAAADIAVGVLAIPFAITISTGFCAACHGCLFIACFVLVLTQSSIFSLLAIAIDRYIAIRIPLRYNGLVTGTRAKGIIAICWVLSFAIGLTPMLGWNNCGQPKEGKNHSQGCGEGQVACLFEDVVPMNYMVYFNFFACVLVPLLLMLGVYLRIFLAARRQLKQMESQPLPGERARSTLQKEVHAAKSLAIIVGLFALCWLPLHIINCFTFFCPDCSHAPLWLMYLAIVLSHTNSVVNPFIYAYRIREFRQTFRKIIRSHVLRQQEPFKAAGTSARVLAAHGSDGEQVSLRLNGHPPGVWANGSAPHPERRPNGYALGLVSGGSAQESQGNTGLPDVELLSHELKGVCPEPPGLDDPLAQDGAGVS

Adenosine receptor A2b = biological target: T2, Adenosine receptor A2b (Homo sapiens, UniProt P29275); experiment: Antagonist activity at recombinant human adenosine A2B receptor expressed in CHO cells assessed as inhibition of NECA-induced adenylyl cyclase activity after 20 mins by [alpha-32P]ATP assay; type: functional, cell-based
T2 sequence (P29275 whole entry): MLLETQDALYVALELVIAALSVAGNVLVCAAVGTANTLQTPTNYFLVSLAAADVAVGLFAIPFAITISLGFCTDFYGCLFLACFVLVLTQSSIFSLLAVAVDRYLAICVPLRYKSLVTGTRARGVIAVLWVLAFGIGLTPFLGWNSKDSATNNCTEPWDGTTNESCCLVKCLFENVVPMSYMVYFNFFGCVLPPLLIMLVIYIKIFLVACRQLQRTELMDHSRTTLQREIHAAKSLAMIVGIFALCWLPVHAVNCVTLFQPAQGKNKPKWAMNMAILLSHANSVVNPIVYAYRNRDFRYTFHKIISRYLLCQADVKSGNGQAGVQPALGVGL

[3] = biological target: Adenosine receptors; A1 & A3 (Homo sapiens) (UniProt P30542+P0DMS8); experiment: Selectivity index, ratio of Ki for recombinant human adenosine A3 receptor to Ki for recombinant human adenosine A1 receptor
Adenosine receptor A3 = biological target: T3, Adenosine receptor A3 (Homo sapiens, UniProt P0DMS8); experiment: Displacement of [3H]NECA from recombinant human adenosine A3 receptor transfected in CHO cell membranes after 3 hrs by microbeta scintillation counting analysis
T3 sequence (P0DMS8 whole entry): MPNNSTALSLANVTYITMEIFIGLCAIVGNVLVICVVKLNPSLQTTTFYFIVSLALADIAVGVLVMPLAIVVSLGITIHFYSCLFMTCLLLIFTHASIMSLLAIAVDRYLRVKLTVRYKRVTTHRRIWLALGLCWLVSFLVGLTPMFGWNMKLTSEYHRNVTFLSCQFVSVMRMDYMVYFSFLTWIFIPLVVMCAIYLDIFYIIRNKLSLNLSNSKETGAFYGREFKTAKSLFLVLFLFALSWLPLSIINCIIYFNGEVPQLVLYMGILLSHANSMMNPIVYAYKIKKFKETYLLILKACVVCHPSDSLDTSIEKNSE

Homo sapiens [4] = species: Homo sapiens; experiment: Selectivity index, ratio of Ki for recombinant human adenosine A2A receptor to Ki for recombinant human adenosine A1 receptor
[5] = biological target: T4, Adenosine receptor A1 (Mus musculus) (UniProt Q60612); experiment: Activity at adenosine A1 receptor in BALB/C mouse ileum assessed as effect on amplitude of rhythmic spontaneous contractions at 1 uM after 1 hr; type: functional
T4 sequence (whole entry): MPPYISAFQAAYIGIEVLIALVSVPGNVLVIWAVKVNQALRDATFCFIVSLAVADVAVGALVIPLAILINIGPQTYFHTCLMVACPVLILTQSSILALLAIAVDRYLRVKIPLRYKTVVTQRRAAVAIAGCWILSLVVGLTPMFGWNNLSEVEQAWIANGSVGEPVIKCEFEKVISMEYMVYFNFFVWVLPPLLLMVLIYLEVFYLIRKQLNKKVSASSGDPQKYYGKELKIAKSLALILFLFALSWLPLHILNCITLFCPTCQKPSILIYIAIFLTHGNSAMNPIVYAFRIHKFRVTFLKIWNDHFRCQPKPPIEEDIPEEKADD

[6] = biological target: T4, Adenosine receptor A1 (Mus musculus); experiment: Antagonist activity at adenosine A1 receptor in BALB/C mouse ileum assessed as reversal of CCPA-induced reduction in rhythmic spontaneous contractions at 1 uM after 1 hr; type: functional
Adenosine receptor A1 [7] = biological target: T1, Adenosine receptor A1; experiment: Antagonist activity at recombinant human adenosine A1 receptor transfected in CHO cells assessed as inhibition of CCPA-induced cAMP accumulation preincubated for 10 mins followed by CCPA addition by GloSensor cAMP assay; type: functional, cell-based
[8] = biological target: T4, Adenosine receptor A1 (Mus musculus); experiment: Activity at adenosine A1 receptor in BALB/C mouse ileum assessed as effect on frequency of rhythmic spontaneous contractions at 1 uM after 1 hr; type: functional
[9] = biological target: T4, Adenosine receptor A1 (Mus musculus); experiment: Antagonist activity at adenosine A1 receptor in BALB/C mouse ileum assessed as reversal of 1 uM CCPA-induced reduction in rhythmic spontaneous contractions by measuring tissue response at 1 uM after 1 hr (reference value: 20%); type: functional; parameters: scale not given: the % may be the effect or the level left
[10] = biological target: T4, Adenosine receptor A1 (Mus musculus); experiment: Antagonist activity at adenosine A1 receptor in BALB/C mouse ileum assessed as reversal of 0.1 uM CCPA-induced reduction in rhythmic spontaneous contractions by measuring tissue response at 1 uM after 1 hr (reference value: 65%); type: functional; parameters: scale not given: the % may be the effect or the level left
[11] = biological target: T4, Adenosine receptor A1 (Mus musculus); experiment: Reversible antagonist activity at adenosine A1 receptor in BALB/C mouse ileum assessed as reversal of CCPA-induced reduction in rhythmic spontaneous contractions at 1 uM incubated for 1 hr measured after compound wash out; type: functional

Structure (SMILES) | Ratio Ki (Homo sapiens [1]) | Ki (Adenosine receptor A1 [2]) | Ki (Adenosine receptor A2a) | Ki (Adenosine receptor A2b) | Ratio Ki [3] | Ki (Adenosine receptor A3) | Ratio Ki (Homo sapiens [4]) | Activity [5] | Kb [6] | IC50 (Adenosine receptor A1 [7]) | Activity [8] | Activity [9] | Activity [10] | inhibition [11]
CCn1c(-c2ccccc2)nc2c(NC3CCOC3)ncnc21 (stereo not given) | 1150 | 0.01 µM | 1.02 µM | 11.5 µM | 166 | 1.66 µM | 102 | – | – | – | – | – | – | –
CCCn1c(-c2ccccc2)nc2c(NC3CCCC3)ncnc21 | 343 | 0.01 µM | 0.634 µM | 3.43 µM | 75 | 0.749 µM | 63 | – | – | – | – | – | – | –
Cc1ccccc1-c1nc2c(NC3CCCC3)ncnc2n1C | > 545 | 0.055 µM | 6.98 µM | > 30 µM | 55 | 3 µM | 127 | – | – | – | – | – | – | –
Cn1c(-c2ccccc2)nc2c(NC3CCOC3)ncnc21 (stereo not given) | 1660 | 0.008 µM | 1.83 µM | 13.3 µM | 783 | 6.26 µM | 229 | – | – | – | – | – | – | –
CCn1c(-c2ccccc2)nc2c(NC3CCCCC3)ncnc21 | 902 | 0.01 µM | 0.307 µM | 9.02 µM | 71 | 0.707 µM | 31 | – | – | – | – | – | – | –
Cn1c(-c2ccccc2)nc2c(N)ncnc21 | 339 | 0.023 µM | 0.381 µM | 7.79 µM | 609 | 14 µM | 17 | – | – | – | – | – | – | –
CCn1c(-c2ccccc2)nc2c(NC3CCCC3)ncnc21 | 1480 | 0.0039 µM | 0.334 µM | 5.79 µM | 91 | 0.354 µM | 86 | – | – | – | – | – | – | –
Cn1c(-c2ccccc2Cl)nc2c(NC3CCCC3)ncnc21 | > 811 | 0.037 µM | 3.08 µM | > 30 µM | 19 | 0.72 µM | 83 | – | – | – | – | – | – | –
Cn1c(-c2ccc(O)cc2)nc2c(NC3CCCC3)ncnc21 | 1050 | 0.017 µM | 0.532 µM | 17.8 µM | 31 | 0.521 µM | 31 | inactive | 0.066 µM | 0.052 µM | inactive | – | – | –
Cn1c(-c2ccc(C(=O)O)cc2)nc2c(NC3CCCC3)ncnc21 | > 0.6 | 54 µM | > 100 µM | > 30 µM | 0.5 | 25.7 µM | > 1.9 | – | – | – | – | – | – | –
Cn1c(-c2ccccc2)nc2c(NC3CCC3)ncnc21 | 1170 | 0.0032 µM | 0.303 µM | 3.73 µM | 88 | 0.28 µM | 95 | – | – | – | – | – | – | –
Cn1c(-c2ccccc2)nc2c(NC3CCCC3)ncnc21 | 3040 | 0.0028 µM | 0.498 µM | 8.51 µM | 302 | 0.846 µM | 178 | inactive | 0.017 µM | 0.014 µM | inactive | 75% | 100% | Active
Cn1c(-c2ccc(Cl)cc2)nc2c(NC3CCCC3)ncnc21 | > 1670 | 0.018 µM | 1.82 µM | > 30 µM | 67 | 1.21 µM | 101 | – | – | – | – | – | – | –
CCCn1c(-c2ccccc2)nc2c(NC3CCCCC3)ncnc21 | 197 | 0.027 µM | 1.06 µM | 5.31 µM | 87 | 2.36 µM | 39 | – | – | – | – | – | – | –
Cc1cccc(-c2nc3c(NC4CCCC4)ncnc3n2C)c1 | 973 | 0.0062 µM | 0.45 µM | 6.03 µM | 82 | 0.51 µM | 73 | inactive | 0.033 µM | 0.043 µM | inactive | – | – | –

The remaining molecules from weak to strong by Ki (Adenosine receptor A1 [2]), led by results:

Ratio Ki (Homo sapiens [1]) | Ki (Adenosine receptor A1 [2]) | Ki (Adenosine receptor A2a) | Ki (Adenosine receptor A2b) | Ratio Ki [3] | Ki (Adenosine receptor A3) | Ratio Ki (Homo sapiens [4]) | Activity [5] | Kb [6] | IC50 (Adenosine receptor A1 [7]) | Activity [8] | Activity [9] | Activity [10] | inhibition [11] | Structure (SMILES)
> 124 | 0.242 µM | 6.33 µM | > 30 µM | 45 | 11 µM | 26 | – | – | – | – | – | – | – | Cn1c(-c2cccnc2)nc2c(NC3CCCC3)ncnc21
10 | 0.101 µM | 0.492 µM | 1.04 µM | 92 | 9.28 µM | 5 | – | – | – | – | – | – | – | CCCn1c(-c2ccccc2)nc2c(N)ncnc21
> 400 | 0.075 µM | 1.79 µM | > 30 µM | 25 | 1.85 µM | 24 | – | – | – | – | – | – | – | COc1ccc(-c2nc3c(NC4CCCC4)ncnc3n2C)cc1
97 | 0.031 µM | 0.212 µM | 3.02 µM | 186 | 5.78 µM | 7 | – | – | – | – | – | – | – | CCn1c(-c2ccccc2)nc2c(N)ncnc21
363 | 0.025 µM | 1.7 µM | 9.08 µM | 112 | 2.81 µM | 68 | – | – | – | – | – | – | – | CCCn1c(-c2ccccc2)nc2c(NC3CCOC3)ncnc21 (stereo not given)
52 | 0.015 µM | 0.365 µM | 0.774 µM | 18 | 0.264 µM | 24 | – | – | – | – | – | – | – | CCCn1c(-c2ccccc2)nc2c(NC3CCC3)ncnc21
> 3750 | 0.008 µM | 1.8 µM | > 30 µM | 60 | 0.48 µM | 225 | inactive | 0.177 µM | 0.061 µM | inactive | – | – | – | Cc1ccc(-c2nc3c(NC4CCCC4)ncnc3n2C)cc1
389 | 0.0065 µM | 0.267 µM | 2.53 µM | 79 | 0.514 µM | 41 | – | – | – | – | – | – | – | Cn1c(-c2cccc(Cl)c2)nc2c(NC3CCCC3)ncnc21
> 4840 | 0.0062 µM | 2.4 µM | > 30 µM | 184 | 1.14 µM | 387 | inactive | 0.043 µM | 0.032 µM | inactive | – | – | – | Cn1c(-c2ccc(F)cc2)nc2c(NC3CCCC3)ncnc21
240 | 0.006 µM | 0.379 µM | 1.44 µM | 14 | 0.084 µM | 63 | – | – | – | – | – | – | – | CCn1c(-c2ccccc2)nc2c(NC3CCC3)ncnc21
> 5260 | 0.0057 µM | 0.527 µM | > 30 µM | 416 | 2.37 µM | 92 | – | – | – | – | – | – | – | Cn1c(-c2ccccc2)nc2c(NC3CCCCC3)ncnc21
